# Test results published in patent publication US20260242419A1, “A CYCLIC PEPTIDE FOR TRAPPING INTERLEUKIN-1 BETA” (Merck Sharp & Dohme LLC, priority 2023, published 2026).
# Starred links: 1 amine or outer side, 2 acyl side, 3 side chain; linkers in the order of their positions; H or OH if unused. Non-standard residues stand in square brackets, D forms with d. Residues, ends and D or L forms follow the SMILES beside them. Trp(4-Cl)(βS-Me) = C[C@@H](c1c[nH]c2cccc(Cl)c12)[C@H](N)C(=O)O; dPro(4R-(4-pyridylmethyl)) = O=C(O)[C@H]1C[C@@H](Cc2ccncc2)CN1; Trp(βS-Me,4-F) = C[C@@H](c1c[nH]c2cccc(F)c12)[C@H](N)C(=O)O; Bip(4'-COOH) = N[C@@H](Cc1ccc(-c2ccc(C(=O)O)cc2)cc1)C(=O)O; dPro(4R-Bzl(4-F)) = O=C(O)[C@H]1C[C@@H](Cc2ccc(F)cc2)CN1; dPro(3S-(4-F-Bn)) = O=C(O)[C@@H]1NCC[C@@H]1Cc1ccc(F)cc1; X32 = Cn1cnc(-c2ccc(C[C@H](N[*:1])C(=O)[*:2])cc2)c1; Ala(pyrimidin-5-yl) = N[C@@H](Cc1cncnc1)C(=O)O; Phe(4-COOH) = N[C@@H](Cc1ccc(C(=O)O)cc1)C(=O)O; Bip = N[C@@H](Cc1ccc(-c2ccccc2)cc1)C(=O)O; Pro(cis-4-F) = O=C(O)[C@@H]1C[C@H](F)CN1; X6 = O=C([C@H](Cc1ccncn1)N[*:1])[*:2]; d(αMeD) = C[C@@](N)(CC(=O)O)C(=O)O; 4Pal = N[C@@H](Cc1ccncc1)C(=O)O; αMeS = C[C@](N)(CO)C(=O)O; Dab = NCC[C@H](N)C(=O)O; Aib = CC(C)(N)C(=O)O
# Target: T1, IL-1β (Homo sapiens, UniProt P01584)
# T1 construct: purchased BioLegend 579404
# T1 sequence (P01584 117-269): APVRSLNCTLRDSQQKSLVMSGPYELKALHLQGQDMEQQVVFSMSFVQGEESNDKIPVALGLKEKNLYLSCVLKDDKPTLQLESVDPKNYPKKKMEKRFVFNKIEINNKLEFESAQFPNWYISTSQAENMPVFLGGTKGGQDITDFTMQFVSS
# Assay: IL-6 assay in MRC5 cells: inhibition of IL-1β induced IL-6 secretion (AlphaLISA)
# Format: cell-based
# Settings: not given
# Method in brief: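 Compound was pre-incubated 1 h at ambient temperature with recombinant human IL-1β at 2λ EC80 before adding human lung fibroblast MRC5 cells (3000/well) in EMEM with 0.025% BSA. After overnight culture at 37 °C, 5% CO2, secreted IL-6 in conditioned medium was measured by AlphaLISA; IC50 from 4-parameter logistic fits.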
row,Structure (SMILES),IC50 [nM]
1,"C[C@@H](c1c[nH]c2cccc(F)c12)[C@@H]1NC(=O)[C@@H]2C[C@H](F)CN2C(=O)CNC(=O)[C@H](Cc2ccc(C(=O)O)cc2)NC(=O)[C@H](Cc2ccncc2)NC(=O)[C@H](Cc2ccc(-c3ccc(C(=O)O)cc3)cc2)NC(=O)[C@H]2C[C@@H](Cc3ccc(F)cc3)CN2C(=O)CNC(=O)[C@H](CCN)NC(=O)[C@H](CCC(N)=O)NC(=O)[C@H](Cc2cncnc2)NC(=O)C(C)(C)NC(=O)[C@H](Cc2c[nH]c3ccccc23)NC(=O)[C@H](CCC(=O)O)NC(=O)[C@](C)(CO)NC1=O [Example 22] (cyclo([4Pal][Phe(4-COOH)]G[Pro(cis-4-F)][Trp(βS-Me,4-F)][αMeS]EW[Aib][Ala(pyrimidin-5-yl)]Q[Dab]G[dPro(4R-Bzl(4-F))][Bip(4'-COOH)]))",0.027

# Same assay, conditions: inhibition of IL-1β induced IL-6 secretion in MRC5 cells; compound pre-incubated 1 hour with recombinant human IL-1β; read-out: MRC5 IC50
row,IC50 [nM],Structure (SMILES)
1,0.013,"C[C@@H](c1c[nH]c2cccc(F)c12)[C@@H]1NC(=O)[C@@H]2C[C@H](F)CN2C(=O)CNC(=O)[C@H](Cc2ccc(C(=O)O)cc2)NC(=O)[C@H](Cc2ccncc2)NC(=O)[C@H](Cc2ccc(-c3cn(C)cn3)cc2)NC(=O)[C@H]2[C@@H](Cc3ccc(F)cc3)CCN2C(=O)CNC(=O)[C@H](CCN)NC(=O)[C@H](CCC(N)=O)NC(=O)[C@H](Cc2cncnc2)NC(=O)[C@@](C)(CC(=O)O)NC(=O)[C@H](Cc2c[nH]c3ccccc23)NC(=O)[C@H](CO)NC(=O)C(C)(C)NC1=O [Example 279] (cyclo([X32][4Pal][Phe(4-COOH)]G[Pro(cis-4-F)][Trp(βS-Me,4-F)][Aib]SW[d(αMeD)][Ala(pyrimidin-5-yl)]Q[Dab]G[dPro(3S-(4-F-Bn))]))"
2,0.022,"C[C@@H](c1c[nH]c2cccc(F)c12)[C@@H]1NC(=O)[C@@H]2C[C@H](F)CN2C(=O)CNC(=O)[C@H](Cc2ccc(C(=O)O)cc2)NC(=O)[C@H](Cc2ccncc2)NC(=O)[C@H](Cc2ccc(-c3ccc(C(=O)O)cc3)cc2)NC(=O)[C@H]2C[C@@H](Cc3ccncc3)CN2C(=O)CNC(=O)[C@H](CCN)NC(=O)[C@H](CCC(N)=O)NC(=O)[C@@H](Cc2ccccc2)NC(=O)[C@@](C)(CC(=O)O)NC(=O)[C@H](Cc2c[nH]c3ccccc23)NC(=O)[C@H](CO)NC(=O)C(C)(C)NC1=O [Example 243] (cyclo([Bip(4'-COOH)][4Pal][Phe(4-COOH)]G[Pro(cis-4-F)][Trp(βS-Me,4-F)][Aib]SW[d(αMeD)][dF]Q[Dab]G[dPro(4R-(4-pyridylmethyl))]))"
3,0.015,C[C@@H](c1c[nH]c2cccc(Cl)c12)[C@@H]1NC(=O)[C@@H]2C[C@H](F)CN2C(=O)CNC(=O)[C@H](Cc2ccc(C(=O)O)cc2)NC(=O)[C@H](Cc2ccncc2)NC(=O)[C@H](Cc2ccc(-c3ccccc3)cc2)NC(=O)[C@H]2C[C@@H](Cc3ccncc3)CN2C(=O)CNC(=O)[C@H](CCN)NC(=O)[C@H](CCC(N)=O)NC(=O)[C@H](Cc2cncnc2)NC(=O)[C@@](C)(CC(=O)O)NC(=O)[C@H](Cc2c[nH]c3ccccc23)NC(=O)[C@H](CO)NC(=O)C(C)(C)NC1=O [Example 292] (cyclo([Bip][4Pal][Phe(4-COOH)]G[Pro(cis-4-F)][Trp(4-Cl)(βS-Me)][Aib]SW[d(αMeD)][Ala(pyrimidin-5-yl)]Q[Dab]G[dPro(4R-(4-pyridylmethyl))]))

# Same assay, conditions: inhibition of IL-1β induced IL-6 secretion in MRC5 cells; read-out: MRC5 IC50
row,IC50 [nM],Structure (SMILES)
1,0.032,C[C@@H](c1c[nH]c2cccc(Cl)c12)[C@@H]1NC(=O)[C@@H]2C[C@H](F)CN2C(=O)CNC(=O)[C@H](Cc2ccc(C(=O)O)cc2)NC(=O)[C@H](Cc2ccncc2)NC(=O)[C@H](Cc2ccc(-c3ccc(C(=O)O)cc3)cc2)NC(=O)[C@H]2C[C@@H](Cc3ccc(F)cc3)CN2C(=O)CNC(=O)[C@H](CCN)NC(=O)[C@H](CCC(N)=O)NC(=O)[C@H](Cc2cncnc2)NC(=O)C(C)(C)NC(=O)[C@H](Cc2c[nH]c3ccccc23)NC(=O)[C@H](CCC(=O)O)NC(=O)C(C)(C)NC1=O [Example 148] (cyclo([Bip(4'-COOH)][4Pal][Phe(4-COOH)]G[Pro(cis-4-F)][Trp(4-Cl)(βS-Me)][Aib]EW[Aib][Ala(pyrimidin-5-yl)]Q[Dab]G[dPro(4R-Bzl(4-F))]))
2,0.013,"C[C@@H](c1c[nH]c2cccc(F)c12)[C@@H]1NC(=O)[C@@H]2C[C@H](F)CN2C(=O)CNC(=O)[C@H](Cc2ccc(C(=O)O)cc2)NC(=O)[C@H](Cc2ccncc2)NC(=O)[C@H](Cc2ccc(-c3ccc(C(=O)O)cc3)cc2)NC(=O)[C@H]2C[C@@H](Cc3ccc(F)cc3)CN2C(=O)CNC(=O)[C@H](CCN)NC(=O)[C@H](CCC(N)=O)NC(=O)[C@H](Cc2ccncn2)NC(=O)[C@@](C)(CC(=O)O)NC(=O)[C@H](Cc2c[nH]c3ccccc23)NC(=O)[C@H](CO)NC(=O)C(C)(C)NC1=O [Example 332] (cyclo([Bip(4'-COOH)][4Pal][Phe(4-COOH)]G[Pro(cis-4-F)][Trp(βS-Me,4-F)][Aib]SW[d(αMeD)][X6]Q[Dab]G[dPro(4R-Bzl(4-F))]))"
